In one assay the test system is Plutella xylostella. The assay is described as follows: Insecticidal test on Plutella xylostella (dip of Chinese cabbage seedlings with laid eggs). Type of assay: in vivo. To be noted: 144 h, seedlings with laid eggs dipped about 30 seconds, 25° C., 6 days after dip treatment, read-out: insecticidal effect (corrected mortality rate), activity level. The source says: Insecticidal Test on Plutella xylostella
Adults of Plutella xylostella were released onto Chinese cabbage seedlings and allowed to lay eggs thereon. At 2 days after the release of the adults, the Chinese cabbage seedlings with laid eggs were dipped for about 30 seconds in agrochemical dispersions diluted to 500 ppm, each of which contained a different condensed heterocyclic compound represented by the general formula (1) of the present invention as an active ingredient. After air-dried, the seedlings were kept in a thermostatic chamber at 25° C. At 6 days after the dip treatment, the number of hatched larvae per plot was counted, the mortality rate was calculated according to the formula shown below, and the insecticidal effect was evaluated according to the criteria of Test Example 1. This test was conducted in triplicate using 10 adults of Plutella xylostella per plot. Corrected mortality rate (%)=100×(Number of hatched larvae in a non-treatment plot−Number of hatched larvae in a treatment plot)/Number of hatched larvae in a non-treatment plot [Math. 3]

The subject of another assay is Laodelphax striatella. The assay is described as follows: Insecticidal test on Laodelphax striatella (rice seedling dip). Type of assay: in vivo. To be noted: Laodelphax striatellus, 192 h, rice seedlings dipped 30 seconds, 3rd-instar larvae, 8 days after inoculation, read-out: insecticidal effect (corrected mortality rate), activity level. The source says: Insecticidal Test on Laodelphax striatella
The condensed heterocyclic compounds represented by the general formula (1) of the present invention or salts thereof were separately dispersed in water and diluted to 500 ppm, and rice plant seedlings (variety: Nihonbare) were dipped in the agrochemical dispersions for 30 seconds. After air-dried, each seedling was put into a separate glass test tube and inoculated with ten 3rd-instar larvae of Laodelphax striatella, and then the glass test tubes were capped with cotton plugs. At 8 days after the inoculation, the numbers of surviving larvae and dead larvae were counted, the corrected mortality rate was calculated according to the formula shown below, and the insecticidal effect was evaluated according to the criteria of Test Example 1. Corrected mortality rate (%)=100×(Survival rate in a non-treatment plot−Survival rate in a treatment plot)/Survival rate in a non-treatment plot [Math. 2]

Molecules are shown by their SMILES.

The mortality is the share of the test organisms that died. For the compound `CCS(=O)(=O)c1cc(C(F)(F)F)ccc1C1=Nc2cc(C(F)(F)F)cnc2C1(F)F` [Compound 1-1], the mortality at 500 ppm in the assay with Plutella xylostella and in the assay on Laodelphax striatella was 100% in each case.

Take `CC[S+]([O-])c1cc(C(F)(F)F)cnc1C1=Nc2cc(C(F)(F)F)cnc2C1(F)F` (stereo not shown) [Compound 1-9, 2-(3-Ethylsulfinyl-5-trifluoromethylpyridin-2-yl)-3,3-difluoro-6-trifluoromethyl-3H-pyrrolo[3,2-b]pyridine]: the mortality at 500 ppm with Plutella xylostella and in the assay with Laodelphax striatella was 100% each time.

Turning to `CCS(=O)(=O)c1cc(C(F)(F)F)cnc1C1=Nc2cc(C(F)(F)F)cnc2C1(F)F` [Compound 1-10, 2-(3-Ethylsulfonyl-5-trifluoromethylpyridin-2-yl)-3,3-difluoro-6-trifluoromethyl-3H-pyrrolo[3,2-b]pyridine], the mortality at 500 ppm with Plutella xylostella and in the assay on Laodelphax striatella was 100% each time.

With `CCS(=O)(=O)c1cc(-c2ccc(F)cc2)cnc1C1=Nc2cc(C(F)(F)F)cnc2C1(F)F` [Compound 1-19, 2-(3-Ethylsulfonyl-5-(4-fluorophenyl)pyridin-2-yl)-3,3-difluoro-6-trifluoromethyl-3H-pyrrolo[3,2-b]pyridine], the mortality at 500 ppm in the assay on Plutella xylostella and with Laodelphax striatella was 100% each time.

For `CCS(=O)(=O)c1cc(-c2cccc(C(F)(F)F)c2)cnc1C1=Nc2cc(C(F)(F)F)cnc2C1(F)F` [Compound 1-20, 2-(3-Ethylsulfonyl-5-(3-trifluoromethylphenyl)pyridin-2-yl)-3,3-difluoro-6-trifluoromethyl-3H-pyrrolo[3,2-b]pyridine], the mortality at 500 ppm with Plutella xylostella and in the assay with Laodelphax striatella was 100% each time.

These data come from patent publication US10292395B2, “3H-pyrrolopyridine compound, N-oxide thereof or salt thereof, agricultural and horticultural insecticide comprising the compound and method for using the same” (Nihon Nohyaku Co., Ltd., priority 2015, dated 2019).
